The text below walks through data of patent US8309073B2, “Combination of probiotics” (Valio Ltd., priority 2001, dated 2012).

Entries after “also recorded” stand apart in the source; their conditions may differ.

Series [1] is described as follows: Viability in pH-adjusted MRS broths. The series is classed as physicochemical. The note with it: for Cell content pH 2: MRS broth adjusted with lactic acid to pH 2, 37° C.; for Cell content pH 2 / Cell content pH 3 / Cell content pH 4: 3 hours; for Cell content pH 3: MRS broth adjusted with lactic acid to pH 3, 37° C.; for Cell content pH 4: MRS broth adjusted with lactic acid to pH 4, 37° C.; for Initial content: before cultivation in pH-adjusted MRS broth. The method, then:
The strains were tested at different pH values in MRS broths the pH of which had been adjusted with lactic acid to values pH 4, pH 3 and pH 2. The strain to be studied (fresh culture) was inoculated into a pH broth of 1% and grown at 37° C. for 3 hours, after which the content of live cells was determined using an agar suitable for the strain (see Table 5). The strains maintained their viability in the 3-hour process in a pH value of 3 excellently. […] In the test the bacteria were not protected by components carried by food (such as fat) and therefore they may be assumed to preserve even better when consumed in vivo together with food.

Series [2] in a line: Bile salt tolerance in MRS broths with Oxgal bile salt. The series is classed as physicochemical. The note with it: for Cell content Bile salt 0.3%: MRS broth with 0.3% Oxgal bile salt; for Cell content Bile salt 0.3% / Cell content Bile salt 0.5%: 3 hours, 37° C.; for Cell content Bile salt 0.5%: MRS broth with 0.5% Oxgal bile salt; for Initial content: before cultivation in bile salt MRS broth. The method, then: With regard to bile salt tolerance, the strains were tested in MRS broths that contained 0.3% and 0.5% of Oxgal (Sigma) bile salt by inoculating 1% of the fresh culture into the bile salt MRS broth to be studied. The strains were cultivated in the broths for 3 hours at 37° C., after which the content of live cells was determined using an agar suitable for the strain (see Table 5). All strains survived the treatment excellently.

Series [3] concerns intestinal mucus. As to the kind of experiment: Adhesion of the probiotic strains to intestinal mucus. The series is classed as binding. The note with it: for Adhesion % (+Std.): adhesion to intestinal mucus. Here is the method:
Adhesion of the probiotic strains to mucus was tested in accordance with Ouweland et al. (Ouwehand, A. C., Kirjavainen, P. V., Grönlund, M. -M., Isolauri, E., and Salminen, S. J. 1999. Adhesion of probiotic micro-organisms to intestinal mucus. Int. Dairy J. 9:623-630). LGG and probionic bacterium PJS adhered excellently to the intestinal mucus, Bbi99 moderately and LC705 weakly. Adhesion is a prerequisite for the microbe to produce beneficial effects in the intestines. On the other hand, LC705 is known to adhere well to epithet cells, similarly as LGG (Lehto, E. and Salminen S. 1997. Adhesion of two lactobacillus strains, one lactococcus strain and one propionibacterium strain to cultured human intestinal CaCO-2 cell lines. Bioscience Microflora 16: 13-17). This property is beneficial when there is an imbalance in the intestine and the protective mucus has been weakened.

Series [4] relates to cultured human intestinal CaCO-2 cell lines. Conditions: literature / prior-art description; cited from earlier work.
The conditions of series [5]: prior-art description of the strain; cited from earlier work.
Series [6] relates to intestinal mucus. The note with it: prior-art description of the strain; cited from earlier work.

As for “Bifidobacterium infantis Bbi99 (DSM 13692)”, in series [1], the “Cell content pH 2” value is <10 cfu/ml, the “Cell content pH 3” value is <10 cfu/ml, the “Cell content pH 4” value was 2 × 10^7 cfu/ml and the Initial content is 1 × 10^7 cfu/ml. In series [2], the “Cell content Bile salt 0.3%” value is 1 × 10^7 cfu/ml, the “Cell content Bile salt 0.5%” value was 1 × 10^7 cfu/ml and the Initial content was 3 × 10^7 cfu/ml. Also, in the series with intestinal mucus [3], the “adhesion to the intestinal mucus” value was “moderately” and the “Adhesion % (+Std.)” value is reported as 4.6 ± 2.3%.

“Lactobacillus rhamnosus GG (ATCC 53103) [LGG]”: in series [1], the “Cell content pH 2” value is <10^2 cfu/ml, the “Cell content pH 3” value was 1 × 10^7 cfu/ml, the “Cell content pH 4” value is recorded as 2 × 10^7 cfu/ml and the Initial content is on record as 1 × 10^7 cfu/ml. In series [2], the “Cell content Bile salt 0.3%” value is reported as 2 × 10^7 cfu/ml, the “Cell content Bile salt 0.5%” value is on record as 9 × 10^6 cfu/ml and the Initial content was 1 × 10^7 cfu/ml. Also, in series [4], the “adhesion to epithelial cells” value is “excellent; also recorded: adhere well”. Moreover, in the series with intestinal mucus [3], the “adhesion to the intestinal mucus” value is recorded as “excellently” and the “Adhesion % (+Std.)” value is listed as 26.3 ± 1.3%. The “viability in low pH values and high bile acid contents” value in series [5] is “survives even lower pH values as well as high bile acid contents”. The “adhesion to mucus (strain description)” value with intestinal mucus [6] is recorded as “excellent”.

With “Lactobacillus rhamnosus LC705 (DSM 7061)”, in series [1], the “Cell content pH 2” value is listed as <10^2 cfu/ml, the “Cell content pH 3” value is 4 × 10^7 cfu/ml, the “Cell content pH 4” value was 2 × 10^8 cfu/ml and the Initial content is 6 × 10^7 cfu/ml. Further, in series [2], the “Cell content Bile salt 0.3%” value was 2 × 10^7 cfu/ml, the “Cell content Bile salt 0.5%” value is reported as 1 × 10^7 cfu/ml and the Initial content is 1 × 10^7 cfu/ml. Also, the “adhesion to epithelial cells” value in series [4] is “moderately; also recorded: adhere well”. In the series on intestinal mucus [3], the “adhesion to the intestinal mucus” value was “weakly” and the “Adhesion % (+Std.)” value came out at 0.7 ± 0.2%. In series [5], the “viability in low pH values and high bile acid contents” value is on record as “good”. Besides, in the series on intestinal mucus [6], the “adhesion to mucus (strain description)” value is listed as “weakly”.

For “Propionibacterium freudenreichii ssp. shermanii JS (DSM 7067) [PJS]”, in series [1], the “Cell content pH 2” value is 1 × 10^4 cfu/ml, the “Cell content pH 3” value is recorded as 3 × 10^7 cfu/ml, the “Cell content pH 4” value is reported as 9 × 10^7 cfu/ml and the Initial content is reported as 1 × 10^8 cfu/ml. Besides, the “viability in pH 2” value in series [1] (pH 2, 3 hours) is “remained viable”. Further, in series [2], the “Cell content Bile salt 0.3%” value was 6 × 10^7 cfu/ml, the “Cell content Bile salt 0.5%” value is reported as 5 × 10^7 cfu/ml and the Initial content is 6 × 10^7 cfu/ml. For the same substance, in the series with intestinal mucus [3], the “adhesion to the intestinal mucus” value is given as “excellently” and the “Adhesion % (+Std.)” value is given as 24.9 ± 2.2%. The “viability in low pH values and high bile acid contents” value in series [5] is on record as “excellent”.
